In PubChem BioAssay (NCI):
Values joined by “and” are separate entries in the source; they are usually repeats but may differ in a detail not shown here. Equal values may be shown once.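 How tested: cells in 96-well plates exposed to compound for 48 hours at five concentrations. Here, GI50 denotes the concentration required for 50% inhibition of growth. TGI is the concentration that stops growth completely.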

Experiments:
Experiment in all cases: NCI-60 cell line screen, 48 h
SW-620 colon = tested on: SW-620 colon
RPMI-8226 leukemia = tested on: RPMI-8226 leukemia
SNB-75 CNS = tested on: SNB-75 CNS
MOLT-4 leukemia = tested on: MOLT-4 leukemia
SK-MEL-2 melanoma = tested on: SK-MEL-2 melanoma
A498 renal = tested on: A498 renal
U251 CNS = tested on: U251 CNS
UO-31 renal = tested on: UO-31 renal
RXF 393 renal = tested on: RXF 393 renal
MDA-MB-435 = tested on: MDA-MB-435

## COC(=O)c1sc(-n2cnc3cc(OC)c(OC)cc32)cc1OCc1ccccc1C(F)(F)F
SW-620 colon
  GI50: > 25 µM
  TGI: > 25 µM
RPMI-8226 leukemia
  GI50: > 25 µM
  TGI: > 25 µM
SNB-75 CNS
  GI50: 9.07 µM
  TGI: > 19.6 µM
MOLT-4 leukemia
  GI50: > 25 µM
  TGI: > 25 µM
SK-MEL-2 melanoma
  GI50: > 19 µM
  TGI: > 25 µM
A498 renal
  GI50: 0.513 µM
  TGI: > 25 µM
U251 CNS
  GI50: 10.8 µM
  TGI: > 25 µM
UO-31 renal
  GI50: > 25 µM
  TGI: > 25 µM
RXF 393 renal
  GI50: 7.45 µM
  TGI: > 25 µM
MDA-MB-435
  GI50: > 25 µM
  TGI: > 25 µM

## O=C(Nc1c[nH]c(=O)[nH]c1=O)Oc1ccccc1
SW-620 colon
  TGI: > 100 µM
RPMI-8226 leukemia
  TGI: > 100 µM
SNB-75 CNS
  TGI: > 100 µM
MOLT-4 leukemia
  TGI: > 100 µM
SK-MEL-2 melanoma
  TGI: > 100 µM
A498 renal
  TGI: > 100 µM
U251 CNS
  TGI: > 100 µM
UO-31 renal
  TGI: > 100 µM
RXF 393 renal
  TGI: > 100 µM
MDA-MB-435
  TGI: > 100 µM

## COc1cc2c3c(c4cc(OC)c(OC)cc4c2cc1OC)CN1CCC[C@H]1C3
SW-620 colon
  GI50: 0.0734 µM and < 0.0124 µM
RPMI-8226 leukemia
  GI50: 0.0906 µM and < 0.0175 µM
  TGI: 0.435 µM and 2.13 µM
SNB-75 CNS
  GI50: 0.0084 µM
  TGI: 0.0663 µM
MOLT-4 leukemia
  GI50: 0.0382 µM and < 0.01 µM
  TGI: > 34.9 µM
SK-MEL-2 melanoma
  GI50: 0.0297 µM and < 0.01 µM
A498 renal
  TGI: 0.0368 µM
U251 CNS
  GI50: 0.0221 µM and < 0.01 µM
  TGI: 0.331 µM
UO-31 renal
  TGI: 1.66 µM and 1 µM
RXF 393 renal
  GI50: 0.00487 µM
  TGI: 0.0931 µM
MDA-MB-435
  GI50: 0.0298 µM and < 0.0147 µM
  TGI: 0.494 µM and 1.29 µM

## Cc1cnc(C(=O)Nc2nc3ccc(S(=O)(=O)Nc4ccc(C(C)(C)C)cc4)cc3[nH]2)cn1
SW-620 colon
  GI50: 0.422 µM
  TGI: 13.9 µM
RPMI-8226 leukemia
  GI50: 0.47 µM
  TGI: 12.4 µM
SNB-75 CNS
  GI50: 0.216 µM
  TGI: 1.01 µM
MOLT-4 leukemia
  GI50: 0.562 µM
  TGI: 5.9 µM
SK-MEL-2 melanoma
  GI50: 1.26 µM
  TGI: 17.3 µM
A498 renal
  GI50: 0.288 µM
  TGI: 1.31 µM
U251 CNS
  GI50: 0.648 µM
  TGI: 9.99 µM
UO-31 renal
  GI50: 0.583 µM
  TGI: 19.4 µM
RXF 393 renal
  GI50: 0.312 µM
  TGI: 1.86 µM
MDA-MB-435
  GI50: 0.135 µM
  TGI: 0.434 µM

## O=C1OC(c2ccccc2)=N/C1=C\c1ccccc1
SW-620 colon
  GI50: > 100 µM and 35.5 µM
  TGI: > 100 µM
RPMI-8226 leukemia
  TGI: > 100 µM and 56.8 µM
SNB-75 CNS
  TGI: > 100 µM
MOLT-4 leukemia
  TGI: 85.5 µM and > 100 µM
SK-MEL-2 melanoma
  TGI: 46.8 µM
A498 renal
  TGI: > 100 µM
U251 CNS
  TGI: > 100 µM
UO-31 renal
  TGI: > 100 µM
RXF 393 renal
  GI50: > 100 µM and 43 µM
  TGI: > 100 µM
MDA-MB-435
  TGI: > 100 µM

## N#Cc1cnn(C(=O)c2nn(-c3ccc(Cl)cc3)cc2O)c1N
SW-620 colon
  GI50: 0.521 µM
  TGI: 21 µM
RPMI-8226 leukemia
  GI50: 0.21 µM
  TGI: 0.657 µM
SNB-75 CNS
  GI50: 0.248 µM
  TGI: 17.8 µM
MOLT-4 leukemia
  GI50: 0.373 µM
  TGI: 4.06 µM
SK-MEL-2 melanoma
  GI50: 0.908 µM
  TGI: 18.9 µM
A498 renal
  GI50: 0.174 µM
  TGI: 0.626 µM
U251 CNS
  GI50: 0.284 µM
  TGI: 20.6 µM
UO-31 renal
  GI50: 0.292 µM
  TGI: 5.81 µM
RXF 393 renal
  GI50: 0.161 µM
  TGI: 3.91 µM
MDA-MB-435
  GI50: 0.312 µM
  TGI: 18.9 µM

## O=C1c2ccc3c4c(ccc(c24)C(=O)N1CCCCO)C(=O)N(CCCCO)C3=O
SW-620 colon
  GI50: 1.86 µM
  TGI: 10.1 µM
RPMI-8226 leukemia
  GI50: 2.79 µM
  TGI: 14.3 µM
SNB-75 CNS
  GI50: 3.12 µM
  TGI: 13.6 µM
MOLT-4 leukemia
  GI50: 1.92 µM
  TGI: 12.5 µM
SK-MEL-2 melanoma
  GI50: 1.84 µM
  TGI: 6.88 µM
A498 renal
  GI50: 1.12 µM
  TGI: 2.87 µM
U251 CNS
  GI50: 2.14 µM
  TGI: 6.57 µM
UO-31 renal
  GI50: 1.87 µM
  TGI: 7.65 µM
RXF 393 renal
  GI50: 2.08 µM
  TGI: 10.7 µM
MDA-MB-435
  GI50: 1.46 µM
  TGI: 2.86 µM

## O=C(/C=C/c1ccco1)Nc1ncc(Cc2cc(Cl)ccc2Cl)s1
SW-620 colon
  GI50: 0.0417 µM
  TGI: > 100 µM
RPMI-8226 leukemia
  GI50: 0.0634 µM
  TGI: > 100 µM
SNB-75 CNS
  GI50: 0.0261 µM
  TGI: 0.433 µM
MOLT-4 leukemia
  GI50: 0.061 µM
  TGI: > 100 µM
SK-MEL-2 melanoma
  GI50: 0.148 µM
  TGI: > 100 µM
A498 renal
  GI50: 0.0245 µM
  TGI: 3.96 µM
U251 CNS
  GI50: 0.0426 µM
  TGI: > 100 µM
UO-31 renal
  GI50: 0.162 µM
  TGI: > 100 µM
RXF 393 renal
  GI50: 0.0328 µM
  TGI: 0.303 µM
MDA-MB-435
  GI50: 0.0191 µM
  TGI: 0.0449 µM

## O=C(O)CN(CCN(CC(=O)O)CC(=O)O)CC(=O)O.[Cu+2].[Na+]
SW-620 colon
  GI50: > 100 µM
  TGI: > 100 µM
RPMI-8226 leukemia
  GI50: > 100 µM
  TGI: > 100 µM
SNB-75 CNS
  GI50: > 100 µM
  TGI: > 100 µM
MOLT-4 leukemia
  GI50: > 100 µM
  TGI: > 100 µM
SK-MEL-2 melanoma
  GI50: > 100 µM
  TGI: > 100 µM
A498 renal
  GI50: > 100 µM
  TGI: > 100 µM
U251 CNS
  GI50: > 100 µM
  TGI: > 100 µM
UO-31 renal
  GI50: > 100 µM
  TGI: > 100 µM
RXF 393 renal
  GI50: > 100 µM
  TGI: > 100 µM
MDA-MB-435
  GI50: > 100 µM
  TGI: > 100 µM

## N#Cc1ccc2c(-c3ccnc(NC4CC4)n3)c(-c3ccc(F)cc3)nn2c1
SW-620 colon
  GI50: > 25 µM
  TGI: > 25 µM
RPMI-8226 leukemia
  GI50: > 25 µM
  TGI: > 25 µM
SNB-75 CNS
  GI50: > 17.2 µM
  TGI: > 25 µM
MOLT-4 leukemia
  GI50: > 25 µM
  TGI: > 25 µM
SK-MEL-2 melanoma
  GI50: > 25 µM
  TGI: > 25 µM
A498 renal
  GI50: > 25 µM
  TGI: > 25 µM
U251 CNS
  GI50: > 25 µM
  TGI: > 25 µM
UO-31 renal
  GI50: 6.78 µM
  TGI: > 25 µM
RXF 393 renal
  GI50: > 25 µM
  TGI: > 25 µM
MDA-MB-435
  GI50: > 25 µM
  TGI: > 25 µM

## CCOC(=O)c1c(CN2CCCCC2)nc2ccc(Cl)cc2c1-c1ccccc1
SW-620 colon
  GI50: 18.5 µM
  TGI: 39.2 µM
RPMI-8226 leukemia
  GI50: 20.4 µM
  TGI: 46.2 µM
SNB-75 CNS
  GI50: 47.7 µM
  TGI: > 100 µM
MOLT-4 leukemia
  GI50: 6.5 µM
  TGI: 27.9 µM
SK-MEL-2 melanoma
  GI50: 18.9 µM
  TGI: 40.6 µM
A498 renal
  GI50: 18.3 µM
  TGI: 37.7 µM
U251 CNS
  GI50: 20.3 µM
  TGI: 41.2 µM
UO-31 renal
  GI50: 20.6 µM
  TGI: 53.9 µM
RXF 393 renal
  GI50: 21.4 µM
  TGI: 50 µM
MDA-MB-435
  GI50: 35.1 µM
  TGI: > 100 µM
